{"source": "ChEMBL document CHEMBL1149908", "about": "“Involvement of p21 and FasL in induction of cell cycle arrest and apoptosis by neochamaejasmin A in human prostate LNCaP cancer cells” (J Nat Prod, 2008)", "key": {"LNCaP [1]": {"test_system": "LNCaP", "assay": "Induction of apoptosis in human LNCaP cells assessed as subG1 phase accumulation at > 6.25 ug/ml after 4 days", "type": "functional, cell-based"}, "LNCaP [2]": {"test_system": "LNCaP", "assay": "Apoptotic activity in human LNCaP cells assessed as induction of FasL expression at 12.5 ug/ml after 6 hrs by immunoblot", "type": "functional, cell-based"}, "LNCaP [3]": {"test_system": "LNCaP", "assay": "Decrease in mitochondrial membrane potential in human LNCaP cells at 50 ug/ml after 18 hrs", "type": "functional, cell-based"}, "LNCaP [4]": {"test_system": "LNCaP", "assay": "Induction of apoptosis in human LNCaP cells assessed as procaspase 3 cleavage at 12.5 ug/ml by immunoblot", "type": "functional, cell-based", "conditions": "TDE = time-dependent effect"}, "LNCaP [5]": {"test_system": "LNCaP", "assay": "Induction of procaspase 3 expression in human LNCaP cells at 25 ug/ml after 48 hrs by immunoblot", "type": "functional, cell-based"}, "LNCaP [6]": {"test_system": "LNCaP", "assay": "Induction of procaspase 3 expression in human LNCaP cells at 50 ug/ml after 48 hrs by immunoblot", "type": "functional, cell-based"}, "LNCaP [7]": {"test_system": "LNCaP", "assay": "Cell cycle arrest in human LNCaP cells assessed as accumulation in G1 phase at 6.25 ug/ml after 4 days", "type": "functional"}, "LNCaP [8]": {"test_system": "LNCaP", "assay": "Reduction of NF-kappaB binding to cyclin D promoter in human LNCaP cells by electrophoretic mobility shift assay", "type": "cell-based"}, "LNCaP [9]": {"test_system": "LNCaP", "assay": "Effect on cell morphology in human LNCaP cells assessed as loss of cell surface structure at => 12.5 ug/mL", "type": "functional"}, "LNCaP [10]": {"test_system": "LNCaP", "assay": "Apoptotic activity in human LNCaP cells assessed as induction of FasL expression after 12 hrs", "type": "functional, cell-based"}, "LNCaP [11]": {"test_system": "LNCaP", "assay": "Induction of procaspase 3 expression in human LNCaP cells at 6.25 ug/ml after 48 hrs by immunoblot", "type": "functional, cell-based"}, "LNCaP [12]": {"test_system": "LNCaP", "assay": "Decrease in mitochondrial membrane potential in human LNCaP cells at 6.25 ug/ml after 18 hrs", "type": "functional"}, "LNCaP [13]": {"test_system": "LNCaP", "assay": "Induction of apoptosis in human LNCaP cells assessed as procaspase 8 cleavage at 50 ug/ml by immunoblot", "type": "functional, cell-based", "conditions": "TDE = time-dependent effect"}, "L929": {"test_system": "L929", "assay": "Cytotoxicity against mouse L929 cells after 48 hrs by MTT assay", "type": "cell-based", "conditions": "L929, 48 h"}, "LNCaP [14]": {"test_system": "LNCaP", "assay": "Induction of apoptosis in human LNCaP cells assessed as procaspase 3 cleavage by immunoblot", "type": "functional, cell-based"}, "LNCaP [15]": {"test_system": "LNCaP", "assay": "Increase in p21 mRNA expression in human LNCaP cells at >12.5 ug/mL after 24 hrs by RT-PCR", "type": "functional, cell-based"}, "LNCaP [16]": {"test_system": "LNCaP", "assay": "Induction of apoptosis in human LNCaP cells assessed as procaspase 3 cleavage at 50 ug/ml by immunoblot", "type": "functional, cell-based", "conditions": "TDE = time-dependent effect"}, "LNCaP [17]": {"test_system": "LNCaP", "assay": "Apoptotic activity in human LNCaP cells assessed as induction of p21 expression at 12.5 ug/ml after 12 hrs by immunoblot", "type": "functional, cell-based"}, "SW-620": {"test_system": "SW-620", "assay": "Cytotoxicity against human SW620 cells after 48 hrs by MTT assay", "type": "functional, cell-based", "conditions": "SW-620, 48 h"}, "LNCaP [18]": {"test_system": "LNCaP", "assay": "Induction of apoptosis in human LNCaP cells assessed as procaspase 8 cleavage by immunoblot", "type": "functional, cell-based"}, "LNCaP [19]": {"test_system": "LNCaP", "assay": "Cell cycle arrest in human LNCaP cells assessed as reduction of G1 phase at > 6.25 ug/ml after 4 days", "type": "functional, cell-based"}, "LNCaP [20]": {"test_system": "LNCaP", "assay": "Increase in intracellular ROS generation in human LNCaP cells at 50 ug/ml after 30 mins", "type": "functional"}, "LNCaP [21]": {"test_system": "LNCaP", "assay": "Decrease of cyclin D expression in human LNCaP cells after 24 hrs by immunoblotting analysis", "type": "functional, cell-based"}, "LNCaP [22]": {"test_system": "LNCaP", "assay": "Cell cycle arrest in human LNCaP cells assessed as accumulation in S phase at 6.25 ug/ml after 4 days", "type": "functional"}, "[23]": {"target": "Transcription factor Jun (Homo sapiens) (UniProt P05412)", "sequence (P05412 whole entry)": "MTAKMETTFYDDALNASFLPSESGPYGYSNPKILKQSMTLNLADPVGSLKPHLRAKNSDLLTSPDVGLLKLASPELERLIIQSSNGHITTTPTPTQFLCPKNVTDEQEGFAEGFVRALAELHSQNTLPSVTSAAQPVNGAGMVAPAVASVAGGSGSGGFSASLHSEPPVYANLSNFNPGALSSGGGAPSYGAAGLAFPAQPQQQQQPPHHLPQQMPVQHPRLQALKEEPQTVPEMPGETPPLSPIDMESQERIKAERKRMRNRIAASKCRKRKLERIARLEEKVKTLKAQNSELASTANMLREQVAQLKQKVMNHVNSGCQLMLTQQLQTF", "assay": "Reduction of AP1 binding to cyclin D promoter in human LNCaP cells by electrophoretic mobility shift assay", "type": "cell-based"}, "LNCaP [24]": {"test_system": "LNCaP", "assay": "Increase in intracellular ROS generation in human LNCaP cells at 6.25 ug/ml after 30 mins", "type": "functional"}, "LNCaP [25]": {"test_system": "LNCaP", "assay": "Decrease of PCNA expression in human LNCaP cells after 24 hrs by immunoblotting analysis", "type": "functional, cell-based"}, "LNCaP [26]": {"test_system": "LNCaP", "assay": "Apoptotic activity in human LNCaP cells assessed as induction of Fas expression at 12.5 ug/ml after 24 hrs by immunoblot", "type": "functional, cell-based"}, "LNCaP [27]": {"test_system": "LNCaP", "assay": "Cytotoxicity against human LNCaP cells after 48 hrs by MTT assay", "type": "functional, cell-based"}, "LNCaP [28]": {"test_system": "LNCaP", "assay": "Induction of apoptosis in human LNCaP cells assessed as procaspase 8 cleavage at 12.5 ug/ml by immunoblot", "type": "functional, cell-based", "conditions": "TDE = time-dependent effect"}}, "note": "Activity calls are given as the source filed them. The calls are words filed in the database; no cut-off is given here."}
{"smiles": "O=C1c2c(O)cc(O)cc2O[C@H](c2ccc(O)cc2)[C@@H]1[C@@H]1C(=O)c2c(O)cc(O)cc2O[C@@H]1c1ccc(O)cc1", "note": "[NEOCHAMAEJASMIN A]", "values": [{"measurement": "Activity", "setting": "LNCaP [1]", "value": "Active"}, {"measurement": "Activity", "setting": "LNCaP [2]", "value": "Active"}, {"measurement": "Activity", "setting": "LNCaP [3]", "value": "Active"}, {"measurement": "Activity", "setting": "LNCaP [4]", "value": "tde"}, {"measurement": "Activity", "setting": "LNCaP [5]", "value": "Active"}, {"measurement": "Activity", "setting": "LNCaP [6]", "value": "Active"}, {"measurement": "Activity", "setting": "LNCaP [7]", "value": 75, "unit": "%"}, {"measurement": "Activity", "setting": "LNCaP [8]", "value": "Active"}, {"measurement": "Activity", "setting": "LNCaP [9]", "value": ">=12.5 ug ml-1"}, {"measurement": "Activity", "setting": "LNCaP [10]", "value": "Dose-dependent effect"}, {"measurement": "Activity", "setting": "LNCaP [11]", "value": "Active"}, {"measurement": "fold change (FC)", "setting": "LNCaP [12]", "value": 1.6}, {"measurement": "Activity", "setting": "LNCaP [13]", "value": "tde"}, {"measurement": "IC50", "setting": "L929", "value": 90, "unit": "µg/mL"}, {"measurement": "Activity", "setting": "LNCaP [14]", "value": "Dose-dependent effect"}, {"measurement": "Activity", "setting": "LNCaP [15]", "value": "Active"}, {"measurement": "Activity", "setting": "LNCaP [16]", "value": "tde"}, {"measurement": "Activity", "setting": "LNCaP [17]", "value": "Active"}, {"measurement": "IC50", "setting": "SW-620", "value": 25.1, "unit": "µg/mL"}, {"measurement": "Activity", "setting": "LNCaP [18]", "value": "Dose-dependent effect"}, {"measurement": "Activity", "setting": "LNCaP [19]", "value": "Dose-dependent effect"}, {"measurement": "fold change (FC)", "setting": "LNCaP [20]", "value": 3.5}, {"measurement": "Activity", "setting": "LNCaP [21]", "value": "Dose-dependent effect"}, {"measurement": "Activity", "setting": "LNCaP [22]", "value": "<10", "unit": "%"}, {"measurement": "Activity", "setting": "[23]", "value": "Active"}, {"measurement": "fold change (FC)", "setting": "LNCaP [24]", "value": 1.5}, {"measurement": "Activity", "setting": "LNCaP [25]", "value": "Dose-dependent effect"}, {"measurement": "Activity", "setting": "LNCaP [26]", "value": "Active"}, {"measurement": "IC50", "setting": "LNCaP [27]", "value": 12.5, "unit": "µg/mL"}, {"measurement": "Activity", "setting": "LNCaP [28]", "value": "tde"}]}
